Results published in ChEMBL document CHEMBL1201862, “PubChem BioAssay data set” (2004).
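Test compounds were applied to cells in 96-well plates for 48 hours at 5 doses. The concentration for 50% growth inhibition is given as GI50.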 Activity calls are given as the source filed them. No stated cut-off is given here; in the data, active = GI50 up to about 1.1 µM and inactive = higher.

Key:
Assay in all cases: growth of human tumour cells (NCI), 48 h
786-0 = test system: 786-0
A498 = test system: A498
COLO 205 = test system: COLO 205
DU-145 = test system: DU-145
HCT-116 = test system: HCT-116
HCT-15 = test system: HCT-15
HL-60 = test system: HL-60
HOP-62 = test system: HOP-62
Hs-578T = test system: Hs-578T
LOX IMVI = test system: LOX IMVI
M14 = test system: M14
MCF7 = test system: MCF7
MOLT-4 = test system: MOLT-4
NCI-H226 = test system: NCI-H226
NCI-H460 = test system: NCI-H460
PC-3 = test system: PC-3
SF-295 = test system: SF-295
SK-MEL-28 = test system: SK-MEL-28
SK-MEL-2 = test system: SK-MEL-2
TK-10 = test system: TK-10

| Structure (SMILES) | GI50 (786-0) | GI50 (A498) | GI50 (COLO 205) | GI50 (DU-145) | GI50 (HCT-116) | GI50 (HCT-15) [µM] | GI50 (HL-60) | GI50 (HOP-62) | GI50 (Hs-578T) | GI50 (LOX IMVI) | GI50 (M14) | GI50 (MCF7) | GI50 (MOLT-4) | GI50 (NCI-H226) | GI50 (NCI-H460) | GI50 (PC-3) | GI50 (SF-295) | GI50 (SK-MEL-28) | GI50 (SK-MEL-2) | GI50 (TK-10) |
| --- | --- | --- | --- | --- | --- | --- | --- | --- | --- | --- | --- | --- | --- | --- | --- | --- | --- | --- | --- | --- |
| CCO/C=N/C1=C(C#N)SC2=N/C(=C\c3ccccc3)C(=O)N21 | > 100 µM (inactive) | > 85.1 µM (inactive) | > 100 µM (inactive) | > 100 µM (inactive) | > 100 µM (inactive) | > 100 | 23.9 µM (inactive) | > 100 µM (inactive) | > 100 µM (inactive) | > 100 µM (inactive) | > 100 µM (inactive) | > 100 µM (inactive) | 31.7 µM (inactive) | 97.3 µM (inactive) | > 100 µM (inactive) | > 100 µM (inactive) | > 100 µM (inactive) | > 100 µM (inactive) | > 100 µM (inactive) | > 89.1 µM (inactive) |
| O=C(O)c1ccc(C(=O)O)c(C(=O)Nc2ccc3c(c2)C(=O)c2ccccc2-3)c1 | > 100 µM (inactive) | > 100 µM (inactive) | > 100 µM (inactive) | > 100 µM (inactive) | > 100 µM (inactive) | > 100 | 55.6 µM (inactive) | > 100 µM (inactive) | > 100 µM (inactive) | > 100 µM (inactive) | > 100 µM (inactive) | > 100 µM (inactive) | > 100 µM (inactive) | > 100 µM (inactive) | > 100 µM (inactive) | > 100 µM (inactive) | > 100 µM (inactive) | > 100 µM (inactive) | > 100 µM (inactive) | > 100 µM (inactive) |
| COc1cc(NC(C)c2ccc3c(c2)OCCO3)cc(OC)c1OC (stereo not given) | 34.4 µM (inactive) | 77.1 µM (inactive) | 31.3 µM (inactive) | 36.6 µM (inactive) | 30.3 µM (inactive) | 24.4 | 18.5 µM (inactive) | 58.7 µM (inactive) | 20.9 µM (inactive) | 46.2 µM (inactive) | 31.4 µM (inactive) | 29.6 µM (inactive) | 26.3 µM (inactive) | 24.3 µM (inactive) | 31.6 µM (inactive) | 44.9 µM (inactive) | 23.9 µM (inactive) | 56.4 µM (inactive) | 23.2 µM (inactive) | 63 µM (inactive) |
| CN(Cc1cnc2nc(N)nc(N)c2n1)c1ccc(C(=O)NC2CCCCC2)cc1 | 11.6 µM (inactive) | 24.4 µM (inactive) | 31.3 µM (inactive) | 37.6 µM (inactive) | 6.65 µM (inactive) | 20.8 | 23.7 µM (inactive) | 34.5 µM (inactive) | 23.6 µM (inactive) | 5.51 µM (inactive) | 10.6 µM (inactive) | 29 µM (inactive) | 34.7 µM (inactive) | 23.1 µM (inactive) | 20.1 µM (inactive) | 7.64 µM (inactive) | 32.4 µM (inactive) |  | 35.5 µM (inactive) | 51.3 µM (inactive) |
| C1=Nc2sc3c(c2C2=NCCN12)CCCC3 | 17.4 µM (inactive) | 20.6 µM (inactive) | 23.3 µM (inactive) | 16.3 µM (inactive) | 16.3 µM (inactive) | 16.4 | 13.6 µM (inactive) | 20 µM (inactive) | 21.5 µM (inactive) | 14.7 µM (inactive) |  | 18.3 µM (inactive) | 13.8 µM (inactive) | 13.3 µM (inactive) | 17.5 µM (inactive) | 16.7 µM (inactive) | 21.5 µM (inactive) | 20.7 µM (inactive) | 0.465 µM (active) | 16.6 µM (inactive) |
| CC(C)CC1c2[nH]c3ccccc3c2C[C@H]2C(=O)NC(CCCCNC(=O)OC(C)(C)C)C(=O)N12 (stereo not given in full) | 20.9 µM (inactive) | 35.4 µM (inactive) | 27.7 µM (inactive) | 38 µM (inactive) | 30 µM (inactive) | 31.8 | 21.7 µM (inactive) | 56.2 µM (inactive) | 2.7 µM (inactive) | 24.6 µM (inactive) | 35.3 µM (inactive) | 34.3 µM (inactive) | 11.8 µM (inactive) | 55.3 µM (inactive) |  | 17.9 µM (inactive) | 12.3 µM (inactive) | 65.6 µM (inactive) | 21.6 µM (inactive) | 31.3 µM (inactive) |
| CC(NC(=O)c1ccc(Cl)c(Cl)c1)c1ccc(-c2ccccc2)cc1 (stereo not given) | 22.5 µM (inactive) | 28.9 µM (inactive) | > 100 µM (inactive) | 18.3 µM (inactive) | 59.3 µM (inactive) | > 100 | 4.58 µM (inactive) | 22.2 µM (inactive) | 27 µM (inactive) | 38.3 µM (inactive) | 64.7 µM (inactive) | 78 µM (inactive) |  | 31.3 µM (inactive) | 47.4 µM (inactive) | 28.2 µM (inactive) | 29.9 µM (inactive) | 58.6 µM (inactive) | > 100 µM (inactive) | 29 µM (inactive) |
| O=C(O)Cc1c(-c2ccc([N+](=O)[O-])cc2)c(=O)oc2cc(O)ccc12 | 36.5 µM (inactive) | 22.4 µM (inactive) | 34.2 µM (inactive) | 30.4 µM (inactive) | 26.1 µM (inactive) | 24.2 | 17.7 µM (inactive) |  | 25.9 µM (inactive) | 36.1 µM (inactive) | 32.1 µM (inactive) | 32.5 µM (inactive) | 4.12 µM (inactive) | 29 µM (inactive) | 28.9 µM (inactive) | 28.1 µM (inactive) | 16.1 µM (inactive) | 38 µM (inactive) | 21.2 µM (inactive) | 33.2 µM (inactive) |
